From ChEMBL document CHEMBL2321710, “Bioactive polyhydroxylated steroids from the Hainan soft coral Sinularia depressa Tixier-Durivault” (Bioorg Med Chem Lett, 2013)
≈ marks a conversion by molar mass, not a printed value.

Tests used:
[1] = biological target: Amyloid-beta precursor protein (Homo sapiens) (UniProt P05067); experiment: Neuroprotectivie activity against amyloid beta (25 to 35)-induced toxicity in human SH-SY5Y cells assessed as increase in cell viability at 10 uM incubated for 2 hrs prior to amyloid beta (25 to 35)-challenge measured after 24 hrs by MTT assay relative to control; format: functional, cell-based
Sequence of Amyloid-beta precursor protein (Homo sapiens) (P05067 whole entry): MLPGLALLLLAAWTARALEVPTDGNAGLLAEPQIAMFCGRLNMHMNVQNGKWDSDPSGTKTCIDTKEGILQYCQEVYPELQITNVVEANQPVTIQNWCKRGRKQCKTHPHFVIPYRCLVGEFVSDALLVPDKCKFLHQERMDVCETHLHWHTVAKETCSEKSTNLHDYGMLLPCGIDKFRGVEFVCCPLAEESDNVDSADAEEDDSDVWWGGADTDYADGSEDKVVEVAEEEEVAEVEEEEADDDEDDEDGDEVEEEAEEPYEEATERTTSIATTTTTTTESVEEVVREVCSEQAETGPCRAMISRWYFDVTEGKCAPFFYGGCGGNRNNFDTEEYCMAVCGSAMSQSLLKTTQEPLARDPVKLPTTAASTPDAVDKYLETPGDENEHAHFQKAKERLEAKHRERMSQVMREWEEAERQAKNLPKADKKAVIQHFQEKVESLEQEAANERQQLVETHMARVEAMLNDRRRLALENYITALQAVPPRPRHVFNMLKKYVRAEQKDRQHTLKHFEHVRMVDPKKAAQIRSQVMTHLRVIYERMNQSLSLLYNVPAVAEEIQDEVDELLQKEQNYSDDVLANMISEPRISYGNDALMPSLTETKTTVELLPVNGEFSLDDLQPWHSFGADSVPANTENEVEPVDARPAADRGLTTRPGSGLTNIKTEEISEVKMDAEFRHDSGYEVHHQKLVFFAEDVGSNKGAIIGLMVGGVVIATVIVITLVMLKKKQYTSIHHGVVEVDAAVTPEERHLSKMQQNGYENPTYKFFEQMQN

Staphylococcus aureus = experiment: Antibacterial activity against Staphylococcus aureus Newman […]; format: functional, organism-based
[2] = biological target: T1, Tyrosine-protein phosphatase non-receptor type 1 (Homo sapiens, UniProt P18031); experiment: Inhibition of human PTP1B
T1 sequence (P18031 whole entry): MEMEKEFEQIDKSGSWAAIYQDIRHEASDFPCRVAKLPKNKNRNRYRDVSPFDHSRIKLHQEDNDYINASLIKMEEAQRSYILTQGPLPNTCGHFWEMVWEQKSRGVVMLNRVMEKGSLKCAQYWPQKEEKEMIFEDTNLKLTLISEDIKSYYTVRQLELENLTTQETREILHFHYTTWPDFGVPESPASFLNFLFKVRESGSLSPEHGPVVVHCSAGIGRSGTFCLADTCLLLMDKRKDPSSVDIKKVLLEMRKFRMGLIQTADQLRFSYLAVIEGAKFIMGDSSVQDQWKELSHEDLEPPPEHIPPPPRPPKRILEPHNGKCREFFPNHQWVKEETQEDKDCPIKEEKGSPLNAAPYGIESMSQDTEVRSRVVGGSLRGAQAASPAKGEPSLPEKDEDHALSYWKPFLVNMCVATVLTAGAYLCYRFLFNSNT

[3] = Neuroprotectivie activity against serum deprivation-induced toxicity in human SH-SY5Y cells assessed as increase in cell viability at 10 uM relative to control; format: functional

Row | MIC50 (Staphylococcus aureus) [µM] | SMILES | IC50 [2] [µM] | other results
1 |  | C=C(CC[C@@H](C)[C@H]1CC[C@@H]2[C@]1(C)C[C@H](O)[C@@H]1[C@@]3(C)CC[C@H](O)[C@@H](C)[C@@H]3CC[C@@]21O)C(C)C |  | Activity [1]: 20.1%
2 |  | C[C@@H]1O[C@@H]1P(=O)(O)O [FOSFOMYCIN SODIUM] |  | IC50 (Staphylococcus aureus): 137 µM
3 | 15.6 (≈ 7.66 µg/mL) | C=C(CC[C@@H](C)[C@H]1CC[C@H]2[C@@H]3C[C@@H](O)[C@@]4(O)C[C@@H](O)CC[C@]4(COC(C)=O)[C@H]3CC[C@]12C)C(C)C [ARMATINOL B] |  | 
4 |  | C=C(CC[C@@H](C)[C@H]1CC[C@H]2[C@@H]3CCC4=CC(=O)CC[C@]4(C)[C@H]3CC[C@]12C)C(C)C | 15.3 | Activity [1]: 16.6%; Activity [3]: 16.9%
5 |  | C=C(CC[C@@H](C)[C@H]1CC[C@H]2[C@@H]3CC[C@H]4[C@H](C)[C@@H](O)CC[C@]4(C)[C@H]3CC[C@]12C)C(C)C | 19.5 | 
6 | 1000 (≈ 473 µg/mL) | C=C(CC[C@@H](C)[C@H]1CC[C@H]2[C@@H]3[C@@H](OC(C)=O)C=C4C[C@@H](O)CC[C@]4(CO)[C@H]3CC[C@]12C)C(C)C |  | 
7 |  | C=C(CC[C@@H](C)[C@H]1CC[C@@H]2[C@]1(C)CC[C@@H]1[C@@]3(C)CC[C@H](OC(C)=O)[C@@H](C)[C@@H]3CC[C@@]21O)C(C)C | 22.7 | 

Row | SMILES | MIC50 (Staphylococcus aureus) [µM] | IC50 [2] [µM] | other results
8 | C=C(CC[C@@H](C)[C@H]1CC[C@@H]2[C@]1(C)CC[C@H]1[C@]23CC[C@]2(C[C@@H](O)CC[C@]12C)OO3)C(C)C | 500 (≈ 215 µg/mL) |  | 
